How the values were obtained:
human Y2 receptor = target: T1, human Y2 receptor (Homo sapiens, UniProt P49146); experiment: Receptor binding, BHK cells stably expressing the human Y2 receptor; conditions: read-out: Affinity IC50, humanY2/BHK
T1 construct: expressed in transfected cells; host or cells: BHK
T1 sequence (P49146 1-381): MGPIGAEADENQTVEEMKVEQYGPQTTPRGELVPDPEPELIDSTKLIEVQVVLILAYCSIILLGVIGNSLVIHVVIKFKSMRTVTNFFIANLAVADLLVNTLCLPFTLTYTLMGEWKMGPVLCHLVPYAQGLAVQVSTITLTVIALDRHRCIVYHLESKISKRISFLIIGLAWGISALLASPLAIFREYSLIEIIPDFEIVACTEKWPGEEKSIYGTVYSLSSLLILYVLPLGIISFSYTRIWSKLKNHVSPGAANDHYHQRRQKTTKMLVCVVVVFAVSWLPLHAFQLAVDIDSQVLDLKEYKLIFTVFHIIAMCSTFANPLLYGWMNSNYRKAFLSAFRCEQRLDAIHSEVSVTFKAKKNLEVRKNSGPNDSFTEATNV
Protocol: BHK cells stably expressing the human Y1 receptor: Cells were grown in DMEM with 4.5 g/l glucose, 10% FCS, 1% PENStrep, 1 mg/ml G-418, 1 mg/ml hygromycin B. 96h before receptor binding assay 1mM IPTG was added in order to induce expression. Confluent cells were removed with 0.06% EDTA/PBS (1 min incubation) and resuspended in 15 ml incubation buffer (MEM/25 mM HEPES +1% BSA, […], 0.1% bacitracin, 3.75 mM CaCl2). After 10 min centrifugation at RT (150×g), the pellet was resuspended in 50 ml incubation buffer, respun and resuspended in 30 ml incubation buffer. After counting, the cells were diluted to a final concentration of 2.5×10^5 cells/ml. Two hundred microliters of this cell suspension was incubated 3 h at RT with 30 pM [^125 I]NPY and increasing concentrations of test compounds in a total volume of […]. The incubation was stopped by 10 min centrifugation, 3000×g at 4° C. The pellet was resuspended with 0.25 ml PBS recentrifuged and the pellet measured in a γ-counter.
BHK cells stably expressing the human Y2 receptor: Assay was performed essentially as described for human Y1 expressing BHK cells.

human Y4 receptor = target: T2, human Y4 receptor (Homo sapiens, UniProt P50391); experiment: Receptor binding, CHO cells transiently transfected with human Y4 receptor; conditions: means ± S.E.M. of 3 to 5 experiments, read-out: Affinity IC50, humanY4/CHO
T2 construct: expressed in transfected cells; host or cells: CHO
T2 sequence (P50391 whole entry): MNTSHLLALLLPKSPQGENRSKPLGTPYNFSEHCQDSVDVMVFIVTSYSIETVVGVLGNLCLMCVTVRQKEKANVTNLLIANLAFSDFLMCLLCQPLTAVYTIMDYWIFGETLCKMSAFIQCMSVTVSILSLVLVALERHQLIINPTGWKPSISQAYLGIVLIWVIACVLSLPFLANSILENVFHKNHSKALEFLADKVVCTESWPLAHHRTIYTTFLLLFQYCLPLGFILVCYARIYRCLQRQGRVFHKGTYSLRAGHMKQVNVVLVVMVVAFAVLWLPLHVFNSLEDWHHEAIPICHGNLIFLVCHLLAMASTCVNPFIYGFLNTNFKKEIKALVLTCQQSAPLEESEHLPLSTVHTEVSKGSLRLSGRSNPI
Protocol: (§1) CHO cells transiently transfected with human Y4 and rat Y5 receptor: Transfection was performed using the lipofectamine method according to the manufacturer's protocol (GIBCO BRL Eggenstein, Germany) using expression plasmids encoding the rat Y5 or human Y4 receptor, respectively. Receptor binding was performed as described for rat Y1 expressing HEK 293 cells.

rat Y4 receptor = target: T3, rat Y4 receptor (Rattus norvegicus, UniProt Q63447); experiment: Receptor binding, BHK cells stably transfected with rat Y4 receptor; conditions: read-out: Affinity IC50, ratY4/BHK
T3 construct: expressed in transfected cells; host or cells: BHK
T3 sequence (Q63447 whole entry): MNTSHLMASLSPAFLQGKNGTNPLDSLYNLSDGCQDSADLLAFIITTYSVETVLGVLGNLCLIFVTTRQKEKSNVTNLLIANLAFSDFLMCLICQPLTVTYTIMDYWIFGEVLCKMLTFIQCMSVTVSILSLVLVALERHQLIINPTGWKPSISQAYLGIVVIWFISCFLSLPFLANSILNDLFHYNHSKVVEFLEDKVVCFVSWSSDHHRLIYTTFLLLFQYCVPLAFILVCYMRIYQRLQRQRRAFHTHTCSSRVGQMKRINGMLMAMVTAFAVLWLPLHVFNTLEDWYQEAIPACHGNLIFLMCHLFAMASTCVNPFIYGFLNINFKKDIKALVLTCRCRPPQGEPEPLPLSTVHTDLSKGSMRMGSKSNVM
Protocol: BHK cells stably transfected with rat Y4 receptor: Cultivation and receptor binding was performed as described for hY1/BHK with exception of incubation medium (25 mM HEPES, 2.5 mM CaCl2, 1.0 mM MgCl2, pH 7.4) and final concentration of cell suspension 5×10^5 cells/ml. 24 h before receptor binding assay 1.0 mM IPTG was added for induction of expression. Incubation time for binding assay: 2 h.

rat Y5 receptor = target: T4, rat Y5 receptor (Rattus norvegicus, UniProt Q63634); experiment: Receptor binding, CHO cells transiently transfected with rat Y5 receptor; conditions: means ± S.E.M. of 3 to 5 experiments, read-out: Affinity IC50, ratY5/CHO
T4 construct: expressed in transfected cells; host or cells: CHO
T4 sequence (Q63634 1-445): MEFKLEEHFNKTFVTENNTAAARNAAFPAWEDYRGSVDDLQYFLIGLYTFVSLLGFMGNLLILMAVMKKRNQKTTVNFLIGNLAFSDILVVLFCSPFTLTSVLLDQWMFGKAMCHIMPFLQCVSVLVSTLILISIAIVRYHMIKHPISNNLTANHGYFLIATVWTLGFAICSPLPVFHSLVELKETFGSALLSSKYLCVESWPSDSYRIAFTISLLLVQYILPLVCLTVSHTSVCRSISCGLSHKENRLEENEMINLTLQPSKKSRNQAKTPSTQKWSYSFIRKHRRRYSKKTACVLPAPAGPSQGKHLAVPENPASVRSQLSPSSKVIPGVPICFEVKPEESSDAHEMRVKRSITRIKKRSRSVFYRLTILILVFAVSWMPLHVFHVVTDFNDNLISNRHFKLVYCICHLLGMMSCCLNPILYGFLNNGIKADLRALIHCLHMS
Protocol: as §1

NPY induced food intake = experiment: Food intake in satiated rats after NPY application to the PVN; assay type: in vivo, rat; conditions: for % Inhibition of food intake: PVN, 2 h, 1 μg NPY
Protocol: For these determinations food intake was measured in normal satiated rats after application of NPY to the paraventricular nucleus (PVN) in the presence or absence of the test compound. […] The rats were individually housed in stainless steel cages where water and food were available ad libitum.
Rats under Pentobarbital anaesthesia were stereotactically implanted with a stainless steel double guide cannula targeted bilaterally at the PVNs. Stereotactic coordinates were: -1.8mm caudal, 0.5mm lateral to bregma and 7.0 mm below the skull surface. Injection cannulae extended the guide cannulae by 1 mm. Animals were allowed to recover from surgery for at least 10 days before being used in the experiments. Rats were handled and mock-injected during the […] recovery period to habituate them to the injection procedure.
Animals treated with both test compounds and NPY were treated first with the test compound. Then, 15 min. after PVN infusion of the test compound or vehicle (control) 1 μg of NPY was administered by PVN infusion.
Food intake was measured by placing preweighed pellets into the cages at the time of NPY injection. Pellets were removed from the cage at 2 h post NPY injection. The food intake of animals treated with test compound was calculated as a percentage of the food intake of control animals, i.e., animals treated with vehicle.

[1] = Food intake in food-deprived rats; assay type: in vivo, rat; conditions: 15 μg, bilaterally, PVN
Protocol: Food-deprivation experiments were conducted with male Chbb:Thom rats weighing between 300 and 350 g. The animals were individually housed for the duration of the study and allowed free access to normal food together with tap water. Food was removed from the animals for 24 hours starting at 8:00 a.m. At the end of the fasting period compound or vehicle was administered to the animals by infusion into the PVN. Food was returned to the animals and their food intake monitored at various time periods during the following 24 hour period. The food intake of animals treated with test compound was calculated as a percentage of the food intake of control animals (i.e., animals treated with vehicle).

Compound `N=C(N)NCCC[C@@H](NC(=O)C(c1ccccc1)c1ccccc1)C(=O)NCc1ccc(CNC(N)=O)cc1` [Compound C] has an IC50 (human Y2 receptor) greater than 1 µM, an IC50 (human Y4 receptor) of 12.3 µM and an IC50 (rat Y4 receptor) greater than 10 µM. The IC50 (rat Y5 receptor) was 21 µM, the “NPY induced food intake (result in words)” value (NPY induced food intake) was “reduced” and the “% Inhibition of food intake” value (NPY induced food intake; 15 μg) was 25.9%. The “% Inhibition of food intake” value (NPY induced food intake; 30 μg) was 52.8%, the “% Inhibition of food intake” value (NPY induced food intake; 60 μg) was 69.8% and the “food intake in 24 hour food deprived rats (result in words)” value [1] was “significant reduction in food intake”.
